Assay results reported in patent publication US9365851B2, “Spalt-like transcription factor 4 (SALL4) and uses thereof” (National University of Singapore, priority 2011, dated 2016).

Legend:
[1] = tested on: SALL4A and SALL4B; test: SALL4 knock-down in endometrial cancer cells (Western blot, qRT-PCR); format: cell-based, human; settings: AN3CA and HEC-1A
Text: In brief, the expression plasmids for human SALL4A and SALL4B were constructed using FUW-Luc-mCh-puro vector (FIG. 43A). SALL4A or SALL4B mutant preserving the same amino acid sequence, but containing triple-point mutations within the SALL4shRNA1 target nucleotide sequence, which renders the transgenes resistant to SALL4 shRNA targeting, were generated using QuikChange site-directed mutagenesis kit (Stratagene) and confirmed by sequencing. Short hairpin RNAs set for human SALL4 in pLKO.1-puro vector were purchased from Open Biosystems (RHS3979) and knockdown efficiency was further evaluated. Two of them, designated as SALL4shRNA1 and SALL4shRNA 2, were selected for subsequent experiments. The sequences for SALL4 shRNAs and Scramble shRNA are listed as following: SALL4shRNA1: […] (SEQ ID NO: 3); SALL4shRNA 2: CTATTTAGCCAAAGGCAAA (SEQ ID NO: 2); Scr-shRNA: […] (SEQ ID NO: 14)
To assess the biological functional role of SALL4 in endometrial cancer, first evaluated was SALL4 expression in a panel of six endometrial cancer cell lines using quantitative real-time PCR to select for appropriate models for our functional studies (FIG. 40). […]

[2] = tested on: H661 lung carcinoma cells; test: MTS assay in lung carcinoma cells after knock-down; format: cell-based
Text: FIGS. 16A-16B: Loss of SALL4 in lung cancer cells that express high level of SALL4 decreases cell viability. (16A) qPCR (bar chart) and western blot were done to confirm the dwonregulation of SALL4 RNA (qPCR) and protein (western blot) expression levels upon SALL4 gene knockdown by shRNA (E5) compared to the control (SC).

[3] = tested on: SNU387; test: Cellular uptake of FITC-labeled peptide; format: cell-based, human
Description: (§1) Cells were grown typically in 6 well plates (35 mm dish) to 50-70% confluence. Usually the transfect ion efficiency is somehow cell type specific. 2 mM peptide was diluted 4 times in PBS (2 ul+6 ul) (For FITC peptidedo not dilute the 2 mM stock). For each transfection reaction tube with 100 ul PBS+1 ul diluted peptide was set up. Chariot reagent was diluted 1:10 in ddH2O and for each transfection a 94 ul H2O tube+6 ul diluted Chariot was prepared (No master mix for more than 4 transfections). The 2 tubes were carefully mixed by pipetting up and down and incubated 30 min. at room temperature. Medium was aspirated from the dish (well) and cells were overlay with the mix. 400 ul serum free medium was added and cells were incubated further for 1 h 37 C (cell incubator). 500 ul complete medium (with 10% serum) was finally added. If cells are not very sensitive to serum starvation (cancer cell lines) 5% serum could be used.
(§2) Fluorescent and Confocal microscopy was performed on cells treated with FITC labeled peptides with or without of transfection reagent depending on the cell type. Cells were mounted on cover slips using mounting media with DAPI (Invitrogen) and in some cases cytoskeleton dye (Invitrogen).
(§3) In order to evaluate their cellular uptake and localization, the N terminus of these peptides was labeled with fluorescein isothiocyanate (FITC). Despite the net positive charge of these peptides, their uptake by the cells is cell-type specific. Some cell lines such as HL-60 (an AML cell line) allowed the peptide to enter the cells without any modification or carrier, and some cell lines were not penetrable at all. In order to achieve a similar level of peptide delivery in most cell types, a Chariot Transfection Reagent (Active Motif) was used as a peptide carrier, as directed from the manufacturer. All cell types used in the study described herein were subjected to individual evaluation of the percentage of the cells in which the peptide was delivered as well as the duration of time during which they sustained the labeled peptide in the cells. After Chariot treatment, confocal microscopy studies confirmed uptake of these peptides throughout the cell, including nuclei (as evidenced by DAPI overlay, FIG. 1B).

[4] = tested on: AML; test: Cellular uptake of FITC-labeled peptide; format: cell-based, human
Description: as §1, §2, §3

[5] = tested on: HL60; test: Cellular uptake of FITC-labeled peptide; format: cell-based, human
Description: as §1, §2, §3

peptide uptake (cells with peptide) ([3]; SNU387, no carrier)	peptide uptake (cells with peptide) ([3]; SNU387, with Chariot)	peptide uptake (cells with peptide) ([4]; no carrier)	peptide uptake (cells with peptide) ([4]; with Chariot)	peptide uptake (cells with peptide) ([5]; HL60, no carrier)	peptide uptake (cells with peptide) ([5]; HL60, with Chariot)	Substance	down-regulation of SALL4A and SALL4B [1]	cell viability (MTS) [2]
–	–	–	–	–	–	CTATTTAGCCAAAGGCAAA (short hairpin RNA, chemistry and delivery not given here, further chemistry not given here) [E5 shRNA]	could down-regulate SALL4A and SALL4B efficiently	decrease of cell viability
0%	40%	0%	50%	~50%	70%	H-MSRRKQAKPQHI-OH [wt peptide, MSRRKQAKPQHI]	–	–
